According to ChEMBL document CHEMBL2429847, “Inhibitors of PI3Kβ as Potential Treatment for Cancer” (ACS Med Chem Lett, 2013):

Legend:
MDA-MB-468 = experiment: Antiproliferative activity against PTEN-deficient human MDA-MB-468 cells after 6 days by Alamar blue assay; type: functional, cell-based; conditions: MDA-MB-468, 144 h
[1] = molecular target: Phosphatidylinositol 4,5-bisphosphate 3-kinase catalytic subunit beta isoform (Homo sapiens, UniProt P42338); experiment: Inhibition of PI3Kbeta-mediated AKT phosphorylation at Ser473 in PTEN-deficient human MDA-MB-468 cells after 30 mins; type: cell-based
Sequence of Phosphatidylinositol 4,5-bisphosphate 3-kinase catalytic subunit beta isoform (P42338 whole entry, canonical isoform): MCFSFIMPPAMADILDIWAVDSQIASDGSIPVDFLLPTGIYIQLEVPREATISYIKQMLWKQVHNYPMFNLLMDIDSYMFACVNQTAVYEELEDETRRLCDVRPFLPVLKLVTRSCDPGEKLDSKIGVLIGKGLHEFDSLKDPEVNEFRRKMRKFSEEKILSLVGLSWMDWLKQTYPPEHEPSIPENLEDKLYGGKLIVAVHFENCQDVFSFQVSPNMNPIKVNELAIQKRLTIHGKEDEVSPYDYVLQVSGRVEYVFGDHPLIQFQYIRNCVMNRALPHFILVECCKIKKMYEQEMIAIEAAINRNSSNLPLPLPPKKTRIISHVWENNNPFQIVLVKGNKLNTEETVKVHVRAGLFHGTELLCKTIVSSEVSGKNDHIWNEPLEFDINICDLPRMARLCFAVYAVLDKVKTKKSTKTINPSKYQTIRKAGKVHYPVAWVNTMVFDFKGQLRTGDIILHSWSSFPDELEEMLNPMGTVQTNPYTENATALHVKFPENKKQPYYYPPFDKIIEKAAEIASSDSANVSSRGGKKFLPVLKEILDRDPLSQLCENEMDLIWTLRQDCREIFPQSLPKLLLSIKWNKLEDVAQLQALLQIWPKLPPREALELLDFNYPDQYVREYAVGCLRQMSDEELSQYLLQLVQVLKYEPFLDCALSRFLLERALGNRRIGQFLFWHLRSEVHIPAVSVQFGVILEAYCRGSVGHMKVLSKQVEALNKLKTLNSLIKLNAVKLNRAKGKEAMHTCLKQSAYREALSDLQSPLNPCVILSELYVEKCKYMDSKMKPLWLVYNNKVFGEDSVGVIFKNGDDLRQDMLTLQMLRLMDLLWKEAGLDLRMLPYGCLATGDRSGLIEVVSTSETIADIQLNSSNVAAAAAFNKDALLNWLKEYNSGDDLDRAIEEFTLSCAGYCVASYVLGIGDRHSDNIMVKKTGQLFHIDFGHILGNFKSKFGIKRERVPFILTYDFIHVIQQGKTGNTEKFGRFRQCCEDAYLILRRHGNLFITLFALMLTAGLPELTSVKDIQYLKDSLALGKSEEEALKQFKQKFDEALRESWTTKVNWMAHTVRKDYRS

| Compound | EC50 (MDA-MB-468) [nM] | IC50 [1] [nM] |
| --- | --- | --- |
| Cc1c(Cl)cccc1Cn1c(C)nc2c(C(=O)O)cc(N3CCOCC3)nc21 | 18.1 | 15.9 |
| Cc1c(Cn2c(C)nc3c(C(=O)O)cc(N4CCOCC4)nc32)cccc1C(F)(F)F | 41 | 436 |
| Cc1nc2c(C(=O)O)cc(N3CCOCC3)nc2n1Cc1cccc(Cl)c1Cl | 153 | 41.4 |
